Experimental data published in patent US8273774B2, “Phenoxypyridinylamide compounds” (AstraZeneca AB, priority 2008, dated 2012).

Biological target: recombinant Human Phosphodiesterase B2 (PDE4B2) (Homo sapiens, UniProt Q07343)
Test: Human Phosphodiesterase B2 Radiometric Assay
Type: biochemical
Conditions: 0.1 μg/mL recombinant PDE4B2; preincubated at 30 C for 30 min; [3H]cyclic AMP 8 nM, stopped after 20 min; yttrium silicate SPA beads; read-out: PDE4B2 pIC50 (converted)
Description: Human Phosphodiesterase B2 Radiometric Assay
The assay uses recombinant Human Phosphodiesterase B2 (PDE4B2) produced in house (PrAZL0163), stored at −20° C. This assay is based on the observation that 5′AMP, the product of the reaction catalysed by PDE4, binds preferentially to yttrium silicate SPA beads (Amersham Biosciences, UK) compared to the substrate, cAMP. Compounds at the appropriate concentration were preincubated at 30 C for 30 min with an assay buffer containing 50 mM HEPES (pH 7.5), 8.3 mM MgCl2, 1.7 mM EGTA, 0.01% (w/v) Brij®35 and 0.1 μg/mL recombinant PDE4B2. The reaction was started by the addition of [3H]cyclic AMP to give a final concentration of 8 nM, and was stopped 20 min after the addition of the substrate by the addition of yttrium silicate SPA beads containing 18 mM Zn SO4. Bound […] was measured using a Topcount NXT (Packard Bioscience, UK). pIC50 values (presented in Table 2) were determined using Xlfit3 curve fitting, using model 205.

Chain of recombinant Human Phosphodiesterase B2 (PDE4B2) (Q07343 1-564 isoform Q07343-2): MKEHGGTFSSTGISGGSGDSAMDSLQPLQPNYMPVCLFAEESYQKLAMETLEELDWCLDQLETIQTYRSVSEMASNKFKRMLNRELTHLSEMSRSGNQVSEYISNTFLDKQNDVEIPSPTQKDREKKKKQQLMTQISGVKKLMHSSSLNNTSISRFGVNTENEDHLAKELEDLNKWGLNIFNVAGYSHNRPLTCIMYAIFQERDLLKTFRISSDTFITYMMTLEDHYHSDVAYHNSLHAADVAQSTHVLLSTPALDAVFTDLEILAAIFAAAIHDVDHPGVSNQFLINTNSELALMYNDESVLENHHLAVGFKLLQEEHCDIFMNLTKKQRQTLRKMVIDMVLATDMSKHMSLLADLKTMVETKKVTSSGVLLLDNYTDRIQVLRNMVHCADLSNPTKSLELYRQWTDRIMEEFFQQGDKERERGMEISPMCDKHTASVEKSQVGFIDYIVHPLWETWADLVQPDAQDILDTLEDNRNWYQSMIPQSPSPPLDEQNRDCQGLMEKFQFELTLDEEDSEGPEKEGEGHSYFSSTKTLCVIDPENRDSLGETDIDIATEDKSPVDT

SMILES	IC50 [pM]
Cc1nc(C(=O)N[C@H]2CC[C@@H](NC(=O)c3cc(F)cnc3Oc3cccc(-c4ccc(O)cc4CN(C)C(C)(C)C)c3)CC2)cs1 [Example 26, N-((1s,4s)-4-(2-(2′-((tert-butyl(methyl)amino)methyl)-4′-hydroxybiphenyl-3-yloxy)-5-fluoronicotinamido)cyclohexyl)-2-methylthiazole-4-carboxamide]	200
CN1CCCN(Cc2cc(O)ccc2-c2cccc(Oc3ncc(F)cc3C(=O)N[C@H]3CC[C@@H](NC(=O)c4ccc5ccccc5n4)CC3)c2)CC1 [Example 27, N-((1s,4s)-4-(5-fluoro-2-(4′-hydroxy-2′-((4-methyl-1,4-diazepan-1-yl)methyl)biphenyl-3-yloxy)nicotinamido)cyclohexyl)quinoline-2-carboxamide]	631
Cc1ccc(O)c(C(=O)N[C@H]2CC[C@@H](NC(=O)c3cc(F)cnc3Oc3cccc(-c4ccc(O)cc4CN4CCOCC4)c3)CC2)c1 [Example 28, 5-fluoro-2-(4′-hydroxy-2′-(morpholinomethyl)biphenyl-3-yloxy)-N-((1s,4s)-4-(2-hydroxy-5-methylbenzamido)cyclohexyl)nicotinamide]	25.1
CC(=O)N1CCN(Cc2cc(O)ccc2-c2cccc(Oc3ncc(F)cc3C(=O)N[C@H]3CC[C@@H](NC(=O)c4csc(C)n4)CC3)c2)CC1 [Example 29, N-((1s,4s)-4-(2-(2′-((4-acetylpiperazin-1-yl)methyl)-4′-hydroxybiphenyl-3-yloxy)-5-fluoronicotinamido)cyclohexyl)-2-methylthiazole-4-carboxamide]	39.8
Cc1nc(C(=O)N[C@H]2CC[C@@H](NC(=O)c3cc(F)cnc3Oc3cccc(-c4ccc(O)cc4CN(C)CC(=O)N(C)C)c3)CC2)cs1 [Example 30, N-((1s,4s)-4-(2-(2′-(((2-(dimethylamino)-2-oxoethyl)(methyl)amino)methyl)-4′-hydroxybiphenyl-3-yloxy)-5-fluoronicotinamido)cyclohexyl)-2-methylthiazole-4-carboxamide]	39.8
O=C(N[C@H]1CC[C@@H](NC(=O)c2cc(F)cnc2Oc2cccc(-c3ccc(O)cc3CN3CCOCC3)c2)CC1)c1ccc(O)cc1 [Example 31, 5-fluoro-2-(4′-hydroxy-2′-(morpholinomethyl)biphenyl-3-yloxy)-N-((1s,4s)-4-(4-hydroxybenzamido)cyclohexyl)nicotinamide]	501
O=C(N[C@H]1CC[C@@H](NC(=O)c2cc(F)cnc2Oc2cccc(-c3ccc(O)cc3CN3CCOCC3)c2)CC1)c1cccc(O)c1 [Example 32, 5-fluoro-2-(4′-hydroxy-2′-(morpholinomethyl)biphenyl-3-yloxy)-N-((1s,4s)-4-(3-hydroxybenzamido)cyclohexyl)nicotinamide]	316
Cc1ncsc1C(=O)N[C@H]1CC[C@@H](NC(=O)c2cc(F)cnc2Oc2cccc(-c3ccc(O)cc3CN3CCOCC3)c2)CC1 [Example 33, N-((1s,4s)-4-(5-fluoro-2-(4′-hydroxy-2′-(morpholinomethyl)biphenyl-3-yloxy)nicotinamido)cyclohexyl)-4-methylthiazole-5-carboxamide]	631
Cc1nc(C(=O)N[C@H]2CC[C@@H](NC(=O)c3cc(F)cnc3Oc3cccc(-c4ccc(O)cc4CN4CCOCC4)c3)CC2)cs1 [Example 34, N-((1s,4s)-4-(5-fluoro-2-(4′-hydroxy-2′-(morpholinomethyl)biphenyl-3-yloxy)nicotinamido)cyclohexyl)-2-methylthiazole-4-carboxamide]	25.1
O=C(N[C@H]1CC[C@@H](NC(=O)c2cc(F)cnc2Oc2cccc(-c3ccc(O)cc3CN3CCOCC3)c2)CC1)c1csc(C(F)(F)F)n1 [Example 36, N-((1s,4s)-4-(5-fluoro-2-(4′-hydroxy-2′-(morpholinomethyl)biphenyl-3-yloxy)nicotinamido)cyclohexyl)-2-(trifluoromethyl)thiazole-4-carboxamide]	100
CC(C)c1ncc(C(=O)N[C@H]2CC[C@@H](NC(=O)c3cc(F)cnc3Oc3cccc(-c4ccc(O)cc4CN4CCOCC4)c3)CC2)s1 [Example 37, N-((1s,4s)-4-(5-fluoro-2-(4′-hydroxy-2′-(morpholinomethyl)biphenyl-3-yloxy)nicotinamido)cyclohexyl)-2-isopropylthiazole-5-carboxamide]	200
O=C(N[C@H]1CC[C@@H](NC(=O)c2cc(F)cnc2Oc2cccc(-c3ccc(O)cc3CN3CCOCC3)c2)CC1)c1ccccc1O [Example 38, 5-fluoro-2-(4′-hydroxy-2′-(morpholinomethyl)biphenyl-3-yloxy)-N-((1s,4s)-4-(2-hydroxybenzamido)cyclohexyl)nicotinamide]	39.8
CC(C)c1nc(C(=O)N[C@H]2CC[C@@H](NC(=O)c3cc(F)cnc3Oc3cccc(-c4ccc(O)cc4CN4CCOCC4)c3)CC2)cs1 [Example 39, N-((1s,4s)-4-(5-fluoro-2-(4′-hydroxy-2′-(morpholinomethyl)biphenyl-3-yloxy)nicotinamido)cyclohexyl)-2-isopropylthiazole-4-carboxamide]	20
O=C(N[C@H]1CC[C@@H](NC(=O)c2cc(F)cnc2Oc2cccc(-c3ccc(O)cc3CN3CCOCC3)c2)CC1)c1cccc(O)n1 [Example 40, N-((1s,4s)-4-(5-fluoro-2-(4′-hydroxy-2′-(morpholinomethyl)biphenyl-3-yloxy)nicotinamido)cyclohexyl)-6-hydroxypicolinamide]	794
O=C(N[C@H]1CC[C@@H](NC(=O)c2cc(F)cnc2Oc2cccc(-c3ccc(O)cc3CN3CCOCC3)c2)CC1)c1cc(O)c2ccccc2n1 [Example 41, N-((1s,4s)-4-(5-fluoro-2-(4′-hydroxy-2′-(morpholinomethyl)biphenyl-3-yloxy)nicotinamido)cyclohexyl)-4-hydroxyquinoline-2-carboxamide]	100

Now from value to compound:

IC50 [pM]	SMILES
50.1	O=C(N[C@H]1CC[C@@H](NC(=O)c2cc(F)cnc2Oc2cccc(-c3ccc(O)cc3CN3CCOCC3)c2)CC1)c1cc2ccccc2nc1O [Example 42, N-((1s,4s)-4-(5-fluoro-2-(4′-hydroxy-2′-(morpholinomethyl)biphenyl-3-yloxy)nicotinamido)cyclohexyl)-2-hydroxyquinoline-3-carboxamide]
126	CN(C)Cc1cc(O)ccc1-c1cccc(Oc2ncc(F)cc2C(=O)N[C@H]2CC[C@@H](NC(=O)c3csc(C(C)(C)C)n3)CC2)c1 [Example 43, 2-tert-butyl-N-((1s,4s)-4-(2-(2′-((dimethylamino)methyl)-4′-hydroxybiphenyl-3-yloxy)-5-fluoronicotinamido)cyclohexyl)thiazole-4-carboxamide]
100	CN(C)Cc1cc(O)ccc1-c1cccc(Oc2ncc(F)cc2C(=O)N[C@H]2CC[C@@H](NC(=O)c3nc4ccccc4s3)CC2)c1 [Example 44, N-((1s,4s)-4-(2-(2′-((dimethylamino)methyl)-4′-hydroxybiphenyl-3-yloxy)-5-fluoronicotinamido)cyclohexyl)benzo[d]thiazole-2-carboxamide]
15.8	Cc1csc(C(=O)N[C@H]2CC[C@@H](NC(=O)c3cc(F)cnc3Oc3cccc(-c4ccc(O)cc4CN4CCOCC4)c3)CC2)n1 [Example 45, N-((1s,4s)-4-(5-fluoro-2-(4′-hydroxy-2′-(morpholinomethyl)biphenyl-3-yloxy)nicotinamido)cyclohexyl)-4-methylthiazole-2-carboxamide]
126	Cc1cccc2nc(C(=O)N[C@H]3CC[C@@H](NC(=O)c4cc(F)cnc4Oc4cccc(-c5ccc(CN6CCCOCC6)cc5)c4)CC3)cn12 [Example 46, N-((1s,4s)-4-(2-(4′-((1,4-oxazepan-4-yl)methyl)biphenyl-3-yloxy)-5-fluoronicotinamido)cyclohexyl)-5-methylimidazo[1,2-a]pyridine-2-carboxamide]
794	Cc1cccc2nc(C(=O)N[C@H]3CC[C@@H](NC(=O)c4cc(F)cnc4Oc4cccc(-c5ccc(CN(C)C)cc5)c4)CC3)cn12 [Example 47, N-((1s,4s)-4-(2-(4′-((dimethylamino)methyl)biphenyl-3-yloxy)-5-fluoronicotinamido)cyclohexyl)-5-methylimidazo[1,2-a]pyridine-2-carboxamide]
63.1	Cc1cccc2nc(C(=O)N[C@H]3CC[C@@H](NC(=O)c4cc(F)cnc4Oc4cccc(-c5ccc(CN6C[C@@H](C)N[C@@H](C)C6)cc5)c4)CC3)cn12 [Example 48, N-((1s,4s)-4-(2-(4′-(((3S,5R)-3,5-dimethylpiperazin-1-yl)methyl)biphenyl-3-yloxy)-5-fluoronicotinamido)cyclohexyl)-5-methylimidazo[1,2-a]pyridine-2-carboxamide]
25.1	Cn1ccc(C(=O)N[C@H]2CC[C@@H](NC(=O)c3cc(F)cnc3Oc3cccc(-c4ccc(O)cc4CN4CCOCC4)c3)CC2)n1 [Example 49, 5-fluoro-2-(4′-hydroxy-2′-(morpholinomethyl)biphenyl-3-yloxy)-N-((1s,4s)-4-(1-methyl-1H-pyrazole-3-carboxamido)cyclohexyl)nicotinamide]
316	Cc1cccc2nc(C(=O)N[C@H]3CC[C@@H](NC(=O)c4cc(F)cnc4Oc4cccc(-c5ccc(CN6CCCC6)cc5)c4)CC3)cn12 [Example 50, N-((1s,4s)-4-(5-fluoro-2-(4′-(pyrrolidin-1-ylmethyl)biphenyl-3-yloxy)nicotinamido)cyclohexyl)-5-methylimidazo[1,2-a]pyridine-2-carboxamide]
